Measurements as given in patent US7595395B2, “Gabaergic agents to treat memory deficits” (priority 2005, dated 2009).
Where two headings read alike, the source gives them in different places.

Key:
GABAA/α1 receptors = GABAA/α1 receptors (Homo sapiens, UniProt P14867+P18507); conditions: Huang et al. 2000; cited from earlier work
[1] = tested on: alcohol preferring rats (P) and high alcohol drinking rats (HAD); conditions: cited from earlier work
[2] = target: T1, α2β3γ2 benzodiazepine receptor GABA(A) isoform (UniProt P18507+P47869); test: Radioligand competition binding, α2β3γ2 BzR/GABA(A) isoform; set-up: species or system human and rat; conditions: means of two determinations, read-out: Ki α2
T1 sequence (P18507 1-475): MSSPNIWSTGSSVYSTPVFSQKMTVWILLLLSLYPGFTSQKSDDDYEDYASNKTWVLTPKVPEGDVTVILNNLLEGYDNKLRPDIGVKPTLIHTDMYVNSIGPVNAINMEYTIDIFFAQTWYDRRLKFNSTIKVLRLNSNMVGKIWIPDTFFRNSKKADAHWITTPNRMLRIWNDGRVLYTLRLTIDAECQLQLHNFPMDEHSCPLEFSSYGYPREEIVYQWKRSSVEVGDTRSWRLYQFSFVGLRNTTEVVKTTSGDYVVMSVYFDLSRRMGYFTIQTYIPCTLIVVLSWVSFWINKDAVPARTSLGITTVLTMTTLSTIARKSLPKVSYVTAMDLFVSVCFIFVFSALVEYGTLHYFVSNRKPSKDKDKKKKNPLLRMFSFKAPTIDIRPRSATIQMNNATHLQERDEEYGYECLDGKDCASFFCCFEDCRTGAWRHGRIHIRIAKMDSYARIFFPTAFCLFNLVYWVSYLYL
T1 sequence (P47869 1-451): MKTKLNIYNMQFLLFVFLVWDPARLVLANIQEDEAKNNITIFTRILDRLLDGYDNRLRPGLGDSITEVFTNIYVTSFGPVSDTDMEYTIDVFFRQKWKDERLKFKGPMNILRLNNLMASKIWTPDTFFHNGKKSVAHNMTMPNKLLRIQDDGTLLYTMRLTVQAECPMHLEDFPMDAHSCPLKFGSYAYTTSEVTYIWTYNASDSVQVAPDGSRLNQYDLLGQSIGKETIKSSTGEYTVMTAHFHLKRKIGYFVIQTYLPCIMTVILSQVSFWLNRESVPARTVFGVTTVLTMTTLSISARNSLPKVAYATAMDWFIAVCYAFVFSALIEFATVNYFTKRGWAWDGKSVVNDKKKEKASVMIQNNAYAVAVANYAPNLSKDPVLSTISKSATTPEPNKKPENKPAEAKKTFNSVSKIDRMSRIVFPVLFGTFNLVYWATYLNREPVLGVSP
Procedure: (§1) The affinity of all ligands at the 6 major recombinant GABAA/BzR subtypes was measured by competition for [^3H]Ro15-1788 binding to HEK-T cells expressing both human and rat GABAA/Bz receptors of composition α1β2γ2 (α1), α2β2γ2 (α2), α3β2γ2 (α3), α4β2γ2 (α4), α5β2γ2 (α5) and α6β2γ2 (α6). It is well known that the β2 and β3 subunits can be interchanged with no effect on Bz ligand affinity or efficacy. […] These studies are similar to those performed in the laboratory of Bryan Roth who has already expressed the receptors employing the work of Kucken et. al. and Gray et. al.
(§2) In brief, for membrane preparations, the cells were scraped on to the ice and diluted into 5 mL of phosphate buffered saline (pH=7.40) and cells pelleted by centrifugation for 5 min. at 4° C. The pellet was resuspended in 1 mL of 50 mM Tris-acetate buffer (pH 7.4) and centrifuged at 18,000 g for 20 min. […] Each pellet were diluted to 6 mL and then 100 μL of membranes were incubated with approximately 1 nM final concentration of [^3H]Ro 15-1788 in a total volume of 250 μL together with serial dilutions of test compound for 90 min. on ice. The membranes were harvested in polyethyleneimine-pretreated Whatman GF/C filters and after drying and addition of scintillation cocktail, counted in a scintillation counter. The cpm retained on the filters was plotted against log concentration (M) and fitted to one site competition equation to obtain the Ki using Graphpad Prizm (V4.0) using the Cheng-Prusoff approximation.

[3] = target: T2, α3β3γ2 benzodiazepine receptor GABA(A) isoform (UniProt P18507+P34903); test: Radioligand competition binding, α3β3γ2 BzR/GABA(A) isoform; set-up: species or system human and rat; conditions: means of two determinations, read-out: Ki α3
T2 sequence (P18507 1-475): T1 sequence (P18507 1-475)
T2 sequence (P34903 1-492): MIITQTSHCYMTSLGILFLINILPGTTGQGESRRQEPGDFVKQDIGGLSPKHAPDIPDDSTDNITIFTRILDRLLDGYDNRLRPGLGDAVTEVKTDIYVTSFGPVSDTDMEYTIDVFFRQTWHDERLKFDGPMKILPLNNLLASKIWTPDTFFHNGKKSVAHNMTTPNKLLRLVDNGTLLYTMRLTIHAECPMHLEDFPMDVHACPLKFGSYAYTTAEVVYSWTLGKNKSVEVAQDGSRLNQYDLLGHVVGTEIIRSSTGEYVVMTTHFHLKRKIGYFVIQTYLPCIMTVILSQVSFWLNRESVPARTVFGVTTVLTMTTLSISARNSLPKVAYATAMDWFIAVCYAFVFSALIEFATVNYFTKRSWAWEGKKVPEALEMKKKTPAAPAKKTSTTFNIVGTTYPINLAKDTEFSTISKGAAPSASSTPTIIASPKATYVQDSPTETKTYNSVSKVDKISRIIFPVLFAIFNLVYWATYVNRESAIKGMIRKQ
Procedure: as §1, §2

[4] = target: α6β3γ2 benzodiazepine receptor GABA(A) isoform (UniProt P18507+Q16445); test: Radioligand competition binding, α6β3γ2 BzR/GABA(A) isoform; set-up: species or system human and rat; conditions: means of two determinations, read-out: Ki α6
Procedure: as §1, §2

[5] = target: T3, α1β3γ2 benzodiazepine receptor GABA(A) isoform (UniProt P14867+P18507); test: Radioligand competition binding, α1β3γ2 BzR/GABA(A) isoform; set-up: Ki α1; means of two determinations; Ki α1; α1; species or system human and rat; conditions: means of two determinations, read-out: Ki α1
T3 sequence (P14867 1-456): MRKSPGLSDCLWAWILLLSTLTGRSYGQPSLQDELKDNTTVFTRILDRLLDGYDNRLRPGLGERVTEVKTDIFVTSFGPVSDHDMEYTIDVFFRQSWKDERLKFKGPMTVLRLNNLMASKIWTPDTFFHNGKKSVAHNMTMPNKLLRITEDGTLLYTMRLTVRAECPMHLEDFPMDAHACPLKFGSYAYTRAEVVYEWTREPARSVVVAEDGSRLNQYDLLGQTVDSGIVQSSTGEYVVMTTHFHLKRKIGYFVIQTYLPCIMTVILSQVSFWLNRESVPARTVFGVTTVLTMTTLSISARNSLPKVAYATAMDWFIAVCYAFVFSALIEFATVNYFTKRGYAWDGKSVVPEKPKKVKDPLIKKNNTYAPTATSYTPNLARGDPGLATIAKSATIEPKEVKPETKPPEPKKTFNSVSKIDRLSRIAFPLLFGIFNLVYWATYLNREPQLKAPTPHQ
T3 sequence (P18507 1-475): T1 sequence (P18507 1-475)
Procedure: as §1, §2

[6] = target: T4, α5β3γ2 benzodiazepine receptor GABA(A) isoform (UniProt P18507+P31644); test: Radioligand competition binding, α5β3γ2 BzR/GABA(A) isoform; set-up: Ki α5; means of two determinations; Ki α5; α5; other: text; species or system human and rat
T4 sequence (P18507 1-475): T1 sequence (P18507 1-475)
T4 sequence (P31644 1-462): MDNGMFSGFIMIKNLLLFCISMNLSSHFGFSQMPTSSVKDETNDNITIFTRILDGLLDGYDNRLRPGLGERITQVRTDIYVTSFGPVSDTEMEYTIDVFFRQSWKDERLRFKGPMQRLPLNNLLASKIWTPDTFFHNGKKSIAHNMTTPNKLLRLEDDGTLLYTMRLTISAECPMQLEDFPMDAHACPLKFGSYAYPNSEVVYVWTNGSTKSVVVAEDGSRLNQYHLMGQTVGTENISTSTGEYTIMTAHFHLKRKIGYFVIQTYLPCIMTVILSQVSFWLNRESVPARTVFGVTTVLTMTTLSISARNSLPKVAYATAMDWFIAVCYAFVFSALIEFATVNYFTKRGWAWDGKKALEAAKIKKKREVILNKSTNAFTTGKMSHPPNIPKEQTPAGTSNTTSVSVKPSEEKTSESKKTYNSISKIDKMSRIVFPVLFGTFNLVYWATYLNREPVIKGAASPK

[7] = read-out: Ki α5; Table I; means of two determinations
[8] = Table 2; means of two determinations; read-out: Ki α5
[9] = read-out: Ki α5; Table 2; means of two determinations

Chain of GABAA/α1 receptors (P28472 26-473 partner, one chain of several): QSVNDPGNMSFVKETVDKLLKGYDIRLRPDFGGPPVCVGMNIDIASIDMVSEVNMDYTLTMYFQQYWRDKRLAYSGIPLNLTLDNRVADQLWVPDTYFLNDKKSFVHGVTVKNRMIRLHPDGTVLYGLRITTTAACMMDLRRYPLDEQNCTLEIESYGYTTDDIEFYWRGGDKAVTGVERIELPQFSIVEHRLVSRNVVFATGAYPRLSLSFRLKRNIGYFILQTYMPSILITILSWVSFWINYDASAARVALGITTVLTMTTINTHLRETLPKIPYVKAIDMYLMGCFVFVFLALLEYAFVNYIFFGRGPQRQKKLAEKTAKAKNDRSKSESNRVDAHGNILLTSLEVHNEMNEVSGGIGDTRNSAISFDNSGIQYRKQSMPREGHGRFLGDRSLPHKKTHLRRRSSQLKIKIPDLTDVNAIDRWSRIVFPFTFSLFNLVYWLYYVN

Question: Which “selectivity for α1 over other BzR subtypes” value (GABAA/α1 receptors) does the source give for `CC(C)(C)OC(=O)c1cc2c(cn1)[nH]c1ccccc12` [BCCt, β-carboline-3-carboxylate-tbutyl ester] here?
Answer: 20 fold

Question: What about the “alcohol self administration (in words)” value ([1]; P and HAD rats, June et al. 2003, Foster et al. 2004) of the same molecule?
Answer: potently reduced alcohol self administration

Question: And the “anxiolytic activity (in words)” value ([1]; P and HAD rats)?
Answer: exhibits anxiolytic activity

Question: And the “sedative-hypnotic effects of alcohol (in words)” value ([1]; P rats and HAD rats)?
Answer: antagonized the sedative-hypnotic effects of alcohol

Question: For `CN1Cc2c(CCl)ncn2-c2ccc(Cl)cc2C1=O` [Ligand 12b], which Ki ([2]; Table I) is on record?
Answer: > 300 nM

Question: What about the Ki ([3]; Table I) of the same molecule?
Answer: > 300 nM

Question: And the Ki ([4]; Table I)?
Answer: > 300 nM

Question: And the Ki ([5]; Table I)?
Answer: > 300 nM

Question: And the Ki [6, 7]?
Answer: 28.5 nM

Question: For `CCOCc1ncn2c1CN(C)C(=O)c1cc(Cl)ccc1-2` [Ligand 12c], which Ki ([2]; Table I) is on record?
Answer: > 300 nM

Question: What about the Ki ([3]; Table I) of the same molecule?
Answer: > 300 nM

Question: What about the Ki ([4]; Table I) of the same molecule?
Answer: > 300 nM

Question: And the Ki ([5]; Table I)?
Answer: > 300 nM

Question: And the Ki [6, 7]?
Answer: 82.7 nM

Question: For `C#CC#Cc1ccc2c(c1)C(=O)N1CCC[C@H]1c1c(C(=O)OCC)ncn1-2` [Ligand 14], which Ki [6, 7] is on record?
Answer: 64 nM

Question: For `CCOC(=O)c1ncoc1-c1ncn2c1[C@@H]1CCN1C(=O)c1cc(Br)ccc1-2` [RY062], which Ki ([2]; Table 2) is on record?
Answer: > 1000 nM

Question: What about the Ki ([3]; Table 2) of the same molecule?
Answer: > 500 nM

Question: And the Ki ([4]; Table 2)?
Answer: > 2000 nM

Question: What about the Ki ([5]; Table 2) of the same molecule?
Answer: > 1000 nM

Question: And the Ki [6, 8]?
Answer: 172 nM

Question: What does the source list for `CCOC(=O)c1ncoc1-c1ncn2c1[C@@H]1CCN1C(=O)c1cc(C#C[Si](C)(C)C)ccc1-2` [RY068]?
Answer: Ki ([2]; Table 2): 877 nM; Ki ([3]; Table 2): 496 nM; Ki ([4]; Table 2): > 1000 nM; Ki ([5]; Table 2): > 500 nM; Ki [6, 9]: 37 nM

Question: What does the source list for `C#Cc1ccc2c(c1)C(=O)N1CC[C@H]1c1c(-c3ocnc3C(=O)OCC)ncn1-2` [RY069]?
Answer: Ki ([2]; Table 2): 622 nM; Ki ([3]; Table 2): 506 nM; Ki ([4]; Table 2): > 1000 nM; Ki ([5]; Table 2): 692 nM; Ki [6, 9]: 19 nM

Question: Which Ki ([2]; Table 2) does the source give for `C#Cc1ccc2c(c1)C(=O)N1CC[C@@H]1c1c(-c3nc(C)no3)ncn1-2` [RY-I-29] here?
Answer: > 1000 nM

Question: What about the Ki ([2]; Table I) of the same molecule?
Answer: > 1000 nM

Question: And the Ki ([3]; Table 2)?
Answer: > 1000 nM

Question: What about the Ki ([3]; Table I) of the same molecule?
Answer: > 1000 nM

Question: What about the Ki ([4]; Table 2) of the same molecule?
Answer: > 1000 nM

Question: And the Ki ([4]; Table I)?
Answer: > 1000 nM

Question: What about the Ki ([5]; Table 2) of the same molecule?
Answer: > 1000 nM

Question: And the Ki ([5]; Table I)?
Answer: > 1000 nM

Question: And the Ki [6, 8]?
Answer: 157 nM

Question: What about the Ki ([6]; Table I; means of two determinations; read-out: Ki α5) of the same molecule?
Answer: 157 nM
